Experimental data reported in patent US20140186875A1, “NOVEL OPTICAL LABELING MOLECULES FOR PROTEOMICS AND OTHER BIOLOGICAL ANALYSIS” (Montana State University, priority 2007, published 2014).

Assays:
[1] = Optical properties of the dyes (absorbance, emission, extinction coefficient, quantum efficiency); format: physicochemical
[2] = tested on: Glutathione S Transferase Omega1—GSTO1; test: Differential 2D gel analysis of developing rat brain proteins raised on high and low docosahexaenoic acid; format: in vivo; conditions: DHA enriched diet compared with adequate control diet, cytosolic brain fraction
Description: Each forebrain was ground using a pestle and mortar, previously brought to liquid nitrogen temperature in a sealed plastic bag with positive dry nitrogen gas pressure. After grinding of the tissue at liquid nitrogen temperature, […] sample of cell lysis buffer containing 20 mM Bicine, 5 mM magnesium acetate, 0.5% Nonidet P-40 and Roche Complete protease inhibitor—mini EDTA free, were added to about a 100 mg sample and mixed well in a 2 ml microcentrifuge tube. Sample fractionation—Crude nuclear fraction (P1) was removed by sedimentation at 1000×g for 10 min at room temp. The supernatant (S1) was removed and was ultra-centrifuged at 100,000×g at 4° C. for an hour in 2 ml polycarbonate tubes in a swinging bucket rotor. The cytosolic fraction S2 was separated. […] Protein concentrations of the cytosolic and membrane organelle fractions were assessed, using the Bio-Rad RCDC assay. […]
1st dimension separation—the sample was spread in a lane of a Bio-Rad Protean isoelectric focusing (IEF) cell tray, an 18 cm 3-10 non-linear IPG strip, or 3-7, or 6-11 IEF strip was put on top of it, covered with mineral oil and allowed to passively re-hydrate for one hr. […] The IPG strips were then transferred to an Ettan IPGphor and covered with mineral oil for monitored iso-electric focusing as follows, 3:30 hrs 300V, 2:30 hrs 1000V, 2:30 hrs 2500V and 7:30 hrs 3500V. […]

Row | QE (QY) [1] [%] | ε [1] | λ(abs) [1] [nm] | λ(ems) [1] [nm] | SMILES | down-regulation of spot 2 (GSTO1) [2] | up-regulation of spot 1 (GSTO1) [2]
1 | 2.9 | 101400 1·cm^−1·mol^−1 | 644 | 657 | COc1cc(C(C)O)c([N+](=O)[O-])cc1OCCN(C)CCNC(=O)C(CS(=O)(=O)[O-])NC1=C(/C=C2/N(C)c3ccccc3C2(C)C)C(=O)/C1=C\C1=[N+](C)c2ccccc2C1(C)C (centres unmarked) [Compound 227] | – | –
2 | 2.9 | 127300 1·cm^−1·mol^−1 | 644 | 657 | CN(CCCCCC(=O)O)CCNC(=O)C(CS(=O)(=O)[O-])NC1=C(/C=C2/N(C)c3ccccc3C2(C)C)C(=O)/C1=C\C1=[N+](C)c2ccccc2C1(C)C (centres unmarked) [Compound 222] | – | –

More lines, now with the values behind:

Row | SMILES | QE (QY) [1] [%] | ε [1] | λ(abs) [1] [nm] | λ(ems) [1] [nm] | down-regulation of spot 2 (GSTO1) [2] | up-regulation of spot 1 (GSTO1) [2]
3 | COc1cc(C(C)OC(=O)Oc2ccc([N+](=O)[O-])cc2)c([N+](=O)[O-])cc1OCCNC(=O)C(CS(=O)(=O)[O-])NC1=C(/C=C2/N(C)c3ccccc3C2(C)C)C(=O)/C1=C\C1=[N+](C)c2ccccc2C1(C)C (centres unmarked) [Compound 230] | 3.3 | 79400 1·cm^−1·mol^−1 | 646 | 661 | – | –
4 | CC/C=C\C/C=C\C/C=C\C/C=C\C/C=C\C/C=C\CCC(=O)O [DHA, Docosahexaenoic acid] | – | – | – | – | 1.7 | 2.5
5 | CN1/C(=C/C2=C([O-])C(=C/C3=[N+](C)c4ccccc4C3(C)C)/C2=O)C(C)(C)c2ccccc21 [Compound 220] | – | 280000 1·cm^−1·mol^−1 | 629 | 640 | – | –
